Test results: ChEMBL document CHEMBL1681651, “A broad spectrum anticancer nucleoside with selective toxicity against human colon cells in vitro” (2011)

Legend:
Type in all cases: functional
SN12C [1] = assay: Growth inhibition of human SN12C cells assessed as cell growth at 1 uM after 48 hrs by SRB assay; details: read-out: Activity
ACHN [2] = assay: Growth inhibition of human ACHN cells after 48 hrs by […] growth inhibition assay
SF-268 = assay: Growth inhibition of human SF268 cells assessed as cell growth at 100 uM after 48 hrs by SRB assay; details: SF-268, 48 h, read-out: Activity
NCI-H23 = assay: Growth inhibition of human NCI-H23 cells after 48 hrs by […] growth inhibition assay; details: NCI-H23, 48 h
786-0 = assay: Growth inhibition of human 786-0 cells after 48 hrs by […] growth inhibition assay; details: 786-0, 48 h
EKVX = assay: Growth inhibition of human EKVX cells assessed as cell growth at 1 uM after 48 hrs by SRB assay; details: read-out: Activity
A498 [3] = assay: Growth inhibition of human A498 cells assessed as cell growth at 100 uM after 48 hrs by SRB assay; details: A498, 48 h, read-out: Activity
HCT-116 = assay: Growth inhibition of human HCT116 cells assessed as cell growth at 1 mM after 48 hrs by SRB assay; details: HCT-116, 48 h, read-out: Activity
NCI-H226 = assay: Growth inhibition of human NCI-H226 cells after 48 hrs by […] growth inhibition assay; details: NCI-H226, 48 h
NCI-H460 = assay: Growth inhibition of human NCI-H460 cells assessed as cell growth at 100 uM after 48 hrs by SRB assay; details: NCI-H460, 48 h, read-out: Activity
MCF7 = assay: Growth inhibition of human MCF7 cells assessed as cell growth at 100 uM after 48 hrs by SRB assay; details: MCF7, 48 h, read-out: Activity
OVCAR-4 = assay: Growth inhibition of human OVCAR4 cells after 48 hrs by […] growth inhibition assay; details: OVCAR-4, 48 h
SN12C [4] = assay: Growth inhibition of human SN12C cells assessed as cell growth at 1 mM after 48 hrs by SRB assay; details: read-out: Activity
NCI-H322M [5] = assay: Growth inhibition of human NCI-H322M cells assessed as cell growth at 0.1 uM after 48 hrs by SRB assay; details: read-out: Activity
HOP-92 = assay: Growth inhibition of human HOP92 cells assessed as cell growth at 1 uM after 48 hrs by SRB assay; details: HOP-92, 48 h, read-out: Activity
SK-MEL-5 = assay: Growth inhibition of human SK-MEL-5 cells assessed as cell growth at 1 uM after 48 hrs by SRB assay; details: SK-MEL-5, 48 h, read-out: Activity
NCI-H522 [6] = assay: Growth inhibition of human NCI-H522 cells assessed as cell growth at 1 mM after 48 hrs by SRB assay; details: NCI-H522, 48 h, read-out: Activity
M14 = assay: Growth inhibition of human M14 cells assessed as cell growth at 10 uM after 48 hrs by SRB assay; details: M14, 48 h, read-out: Activity
ACHN [7] = assay: Growth inhibition of human ACHN cells assessed as cell growth at 1 mM after 48 hrs by SRB assay; details: read-out: Activity
RXF 393 = assay: Growth inhibition of human RXF393 cells after 48 hrs by […] growth inhibition assay; details: RXF 393, 48 h
DU-145 = assay: Growth inhibition of human DU145 cells assessed as cell growth at 1 mM after 48 hrs by SRB assay; details: DU-145, 48 h, read-out: Activity
SN12C [8] = assay: Growth inhibition of human SN12C cells assessed as cell growth at 10 uM after 48 hrs by SRB assay; details: read-out: Activity
CCRF-CEM = assay: Growth inhibition of human CCRF-CEM cells assessed as cell growth at 0.1 uM after 48 hrs by SRB assay; details: read-out: Activity
OVCAR-5 = assay: Growth inhibition of human OVCAR5 cells after 48 hrs by […] growth inhibition assay; details: OVCAR-5, 48 h
HOP-62 = assay: Growth inhibition of human HOP62 cells assessed as cell growth at 100 uM after 48 hrs by SRB assay; details: HOP-62, 48 h, read-out: Activity
NCI-H322M [9] = assay: Growth inhibition of human NCI-H322M cells assessed as cell growth at 10 uM after 48 hrs by SRB assay; details: read-out: Activity
T47D = assay: Growth inhibition of human T47D cells assessed as cell growth at 1 mM after 48 hrs by SRB assay; details: read-out: Activity
A498 [10] = assay: Growth inhibition of human A498 cells assessed as cell growth at 0.1 uM after 48 hrs by SRB assay; details: A498, 48 h, read-out: Activity
NCI-H522 [11] = assay: Growth inhibition of human NCI-H522 cells after 48 hrs by […] growth inhibition assay; details: NCI-H522, 48 h
U-251 = assay: Growth inhibition of human U251 cells after 48 hrs by […] growth inhibition assay; details: U-251, 48 h
SNB-75 = assay: Growth inhibition of human SNB75 cells assessed as cell growth at 10 uM after 48 hrs by SRB assay; details: SNB-75, 48 h, read-out: Activity
[12] = read-out: LC50 (the source's name)
[13] = read-out: pLC50 (the source's name) (converted)

## CCOC(=O)C[C@H]1[C@@H](O[Si](C)(C)C(C)(C)C)[C@H](n2cnc3c(NC(=O)Nc4ccccc4)ncnc32)O[C@@H]1CNC(=O)NC
SN12C [1]
  growth at 1 µM: 101%
ACHN [2]; read-out: GI50
  GI50: 8.55 µM
ACHN [2]; [12]
  CC50: > 100 µM
ACHN [2]; read-out: TGI
  TGI: > 100 µM
ACHN [2]; read-out: pGI50 (converted)
  GI50: 8.51 µM
ACHN [2]; [13]
  CC50: > 100 µM
ACHN [2]; read-out: pTGI
  TGI: > 100 µM
SF-268
  growth at 100 µM: 40%
NCI-H23; read-out: GI50
  GI50: 33.3 µM
NCI-H23; [12]
  CC50: > 100 µM
NCI-H23; read-out: TGI
  TGI: > 100 µM
NCI-H23; read-out: pGI50 (converted)
  GI50: 33.1 µM
NCI-H23; [13]
  CC50: > 100 µM
NCI-H23; read-out: pTGI (converted)
  TGI: > 100 µM
786-0; read-out: GI50
  GI50: 2 µM
786-0; [12]
  CC50: 17.9 µM
786-0; read-out: TGI
  TGI: 5.21 µM
786-0; read-out: pGI50 (converted)
  GI50: 2 µM
786-0; [13]
  CC50: 17.8 µM
786-0; read-out: pTGI (converted)
  TGI: 5.25 µM
EKVX
  growth at 1 µM: 90%
A498 [3]
  growth at 100 µM: 13%
HCT-116
  growth at 1000 µM: -88%
NCI-H226; read-out: GI50
  GI50: > 100 µM
NCI-H226; [12]
  CC50: > 100 µM
NCI-H226; read-out: TGI
  TGI: > 100 µM
NCI-H226; read-out: pGI50 (converted)
  GI50: > 100 µM
NCI-H226; [13]
  CC50: > 100 µM
NCI-H226; read-out: pTGI (converted)
  TGI: > 100 µM
NCI-H460
  growth at 100 µM: 32%
MCF7
  growth at 100 µM: 16%
OVCAR-4; read-out: GI50
  GI50: 12.3 µM
OVCAR-4; [12]
  CC50: > 100 µM
OVCAR-4; read-out: TGI
  TGI: > 100 µM
OVCAR-4; read-out: pGI50 (converted)
  GI50: 12.3 µM
OVCAR-4; [13]
  CC50: > 100 µM
OVCAR-4; read-out: pTGI
  TGI: > 100 µM
SN12C [4]
  growth at 1000 µM: 11%
NCI-H322M [5]
  growth at 0.1 µM: 105%
HOP-92
  growth at 1 µM: -1%
SK-MEL-5
  growth at 1 µM: 100%
NCI-H522 [6]
  growth at 1000 µM: -2%
M14
  growth at 10 µM: 81%
ACHN [7]
  growth at 1000 µM: 35%
RXF 393; read-out: GI50
  GI50: 2.01 µM
RXF 393; [12]
  CC50: 19.5 µM
RXF 393; read-out: TGI
  TGI: 4.63 µM
RXF 393; read-out: pGI50 (converted)
  GI50: 2 µM
RXF 393; [13]
  CC50: 19.5 µM
RXF 393; read-out: pTGI (converted)
  TGI: 4.68 µM
DU-145
  growth at 1000 µM: -59%
SN12C [8]
  growth at 10 µM: 103%
CCRF-CEM
  growth at 0.1 µM: 96%
OVCAR-5; read-out: GI50
  GI50: 31.1 µM
OVCAR-5; [12]
  CC50: > 100 µM
OVCAR-5; read-out: TGI
  TGI: > 100 µM
OVCAR-5; read-out: pGI50 (converted)
  GI50: 30.9 µM
OVCAR-5; [13]
  CC50: > 100 µM
OVCAR-5; read-out: pTGI (converted)
  TGI: > 100 µM
HOP-62
  growth at 100 µM: 48%
NCI-H322M [9]
  growth at 10 µM: 95%
T47D
  growth at 1000 µM: 13%
A498 [10]
  growth at 0.1 µM: 95%
NCI-H522 [11]; read-out: GI50
  GI50: 4.36 µM
NCI-H522 [11]; [12]
  CC50: > 100 µM
NCI-H522 [11]; read-out: TGI
  TGI: 85.7 µM
NCI-H522 [11]; read-out: pGI50 (converted)
  GI50: 4.37 µM
NCI-H522 [11]; [13]
  CC50: > 100 µM
NCI-H522 [11]; read-out: pTGI (converted)
  TGI: 85.1 µM
U-251; read-out: GI50
  GI50: 4.69 µM
U-251; [12]
  CC50: 76 µM
U-251; read-out: TGI
  TGI: 20.9 µM
U-251; read-out: pGI50 (converted)
  GI50: 4.68 µM
U-251; [13]
  CC50: 75.9 µM
U-251; read-out: pTGI (converted)
  TGI: 20.9 µM
SNB-75
  growth at 10 µM: 85%

## CNC(=O)OC[C@H]1O[C@@H](n2cnc3c(NC(=O)Nc4ccccc4)ncnc32)[C@H](O[Si](C)(C)C(C)(C)C)[C@@H]1O[Si](C)(C)C(C)(C)C
M14
  growth at 10 µM: 102%
SN12C [8]
  growth at 10 µM: 101%
NCI-H322M [9]
  growth at 10 µM: 118%
SNB-75
  growth at 10 µM: 76.6%
